Data as given in patent publication US20210361577A1, “LIPOPHILIC TRANSPORT PARTICLES FOR COSMETIC OR PHARMACEUTICAL ACTIVE INGREDIENTS” (IOI OLEO GMBH, priority 2018, published 2021).
Read-outs that look alike come from different tables or passages of the source.

Columns and labels:
[1] = cited from earlier work
[2] = contact angle with purified water (hydrophobicity) and its storage stability; type: physicochemical; settings: after 16 weeks at room temperature (20° C.) and at 40° C.
Method: An advantageous property of the PGFEs for lipophilic carrier particles in accordance with claim 1 which should be considered is the hydrophobicity, which can be determined by determining the contact angle. The determination of the hydrophobicity is carried out by determining the contact angle between the PGFE in the solid physical state and a droplet of purified water. According to Young's equation, cos θ=(γSV−γSL)/γLV, wherein γSL is the interfacial tension between the PGFE and water, γLV is the interfacial tension of the water droplet and γSV is the surface tension between the PGFE and the surrounding air. θ is the contact angle. Thus, the larger the contact angle θ, the higher is the surface tension between the PGFE and the water and the higher is the hydrophobicity of the PGFE under investigation. The contact angles for the proposed polyglycerol fatty acid esters also correlate with the HLB value which is often used in pharmaceutical technology, which is on a scale of 0 to 20 and provides information regarding the ratio of lipophilic to hydrophilic molecular fractions, wherein the hydrophilic fraction increases with increasing HLB value. […]

[3] = active ingredient loading of carrier particles made by spray drying; type: physicochemical; settings: spray drying process
Description: The carrier particles which are provided fulfil their purpose when they are loaded with an active ingredient, in particular a pharmaceutical active ingredient. This may, for example, be carried out by means of a spray drying process in accordance with claim 22, in which the active ingredient and the PGFE or PGFEs are initially dissolved and/or suspended in a suitable organic solvent and then are separated from the solvent once more by spray drying. Examples of suitable solvents are the ether tetrahydrofuran, the alcohol ethanol, the ketone acetone, the ester ethyl acetate or the alkane heptane. It has been shown that by means of spray drying, loading with a pharmaceutical active ingredient of up to 30% by weight is possible.
Lipophilic carrier particles in accordance with claim 1 can advantageously be loaded with pharmaceutical active ingredients from the group formed by non-steroidal antirheumatic agents.

| contact angle deviation from starting value on storage [2] [°] | loading of the carrier particles with active ingredient [3] | Structure (SMILES) | increase in the crystal thickness ([1]; a- to b-modification transformation) | average lamellar structures per subcellular unit ([1]; a-modification) | average lamellar structures per subcellular unit ([1]; after complete transformation into the b-modification) |
| --- | --- | --- | --- | --- | --- |
| 40 |  | CCCCCCCCCCCCCCCCCC(=O)OCC(COC(=O)CCCCCCCCCCCCCCCCC)OC(=O)CCCCCCCCCCCCCCCCC [glycerol tristearate] | approximately 67% | 6 | 10.5 |
|  | up to 30 % by weight | CC(C)Cc1ccc(C(C)C(=O)O)cc1 (centres unmarked) [ibuprofen] |  |  |  |
